Values joined by “and” are separate entries in the source; they are usually repeats but may differ in a detail not shown here. Equal values may be shown once.
Biological target: T1, SARS CoV-2 M^pro (Severe acute respiratory syndrome coronavirus 2, UniProt P0DTD1)
T1 construct: The main protease (M^pro) is a part of the polyprotein chain, also named 3C-like protease; SUMO (cleaved yes); His; made in house; host or cells: Escherichia coli BL21(DE3)
Test: biochemical
Assay type: biochemical
Details: for inhibition at 80 µM: read-out: Inhibition%(80μM)

Compound	Inhibition%(80μM)	inhibition at 80 µM [%]
O=C(O)c1ccc2c(c1)C(=O)c1ccccc1C2=O [Anthraquinone-2-Carboxylic Acid]	84.57%	85.4
CCCCC/C=C\C/C=C\C/C=C\C/C=C\CCCC(=O)O [Arachidonic Acid]	76.72% and 73.70%	82.2
C[C@@H]1OC(O[C@@H]2[C@@H](O)[C@H](OCCc3ccc(O)c(O)c3)O[C@H](CO[C@@H]3OC[C@@H](O)[C@H](O)[C@H]3O)[C@H]2OC(=O)/C=C/c2ccc(O)c(O)c2)[C@H](O)[C@H](O)[C@H]1O (stereo partly drawn) [Arenarioside]	99.86% and 99.31%	99.1
O=C(O)[C@H]1O[C@@H](Oc2cc3oc(-c4ccccc4)cc(=O)c3c(O)c2O)[C@H](O)[C@@H](O)[C@@H]1O [Baicalin]	72.02%	77.5
Oc1ccc2c(c1)OC[C@]1(O)Cc3cc(O)c(O)cc3[C@H]21 [Brazilin]	101.06% and 101.28%	101
O=C(O)[C@H]1O[C@@H](Oc2cc3oc(-c4ccc(O)cc4)cc(=O)c3c(O)c2O)[C@H](O)[C@@H](O)[C@@H]1O [Breviscapin]	78.06% and 77.78%	66
CC(C)c1cc2c(c(O)c1O)[C@@]13CCCC(C)(C)[C@@H]1C[C@@H]2OC3=O [Carnosol]	73.35% and 80.59%	74.5
CC1=C(O)C(=O)C=C2C1=CC=C1[C@@]2(C)CC[C@@]2(C)[C@@H]3C[C@](C)(C(=O)O)CC[C@]3(C)CC[C@]12C [Celastrol]	85.83% and 91.32%	89.6
COc1ccc2c(c[n+](C)c3c4cc5c(cc4ccc23)OCO5)c1OC [Chelerythrine chloride]	98.66% and 98.31% and 98.46%	–
COc1ccc2c(c[n+](C)c3c4cc5c(cc4ccc23)OCO5)c1OC [Chelerythrine]	98.97% and 99.51%	99.4
O=C(O[C@@H]1O[C@@H]2COC(=O)c3cc(O)c(O)c(O)c3-c3c(cc(O)c(O)c3O)C(=O)O[C@H]([C@H]1O)[C@@H]2O)c1cc(O)c(O)c(O)c1 [Corilagin]	101.84% and 101.22%	101
CC(C)=CCCC1=CC(=O)c2c(O)ccc(O)c2C1=O [Deoxyshikonin]	88.46% and 84.98%	82.3
O=C(/C=C/c1ccc(O)c(O)c1)OC[C@H]1O[C@@H](OCCc2ccc(O)c(O)c2)[C@H](O)[C@@H](O)[C@@H]1O [Desrhamnosyl Isoacteoside]	93.35% and 94.40% and 92.55%	–
CCCCC/C=C\C/C=C\CCCCCCCCCC(=O)O [Eicosadienoic Acid]	103.14% and 107.18%	105
CCCCCCCC/C=C/CCCCCCCC(=O)O [Elaidic Acid]	79.40% and 87.31%	74.9
CCCCCCCCCCCC1=C(O)C(=O)C=C(O)C1=O [Embelin]	89.75% and 99.35%	103
CCCCCCCC/C=C\CCCCCCCCCCCC(=O)O [Erucic Acid]	99.68% and 100.48%	101
C[C@@H]1O[C@@H](OC[C@H]2O[C@@H](OCCc3ccc(O)c(O)c3)[C@H](O)[C@@H](O)[C@@H]2OC(=O)/C=C/c2ccc(O)c(O)c2)[C@H](O)[C@H](O)[C@H]1O [Forsythoside A]	73.60% and 71.69%	77
C[C@@H]1O[C@@H](OC[C@H]2O[C@@H](OCCc3ccc(O)c(O)c3)[C@H](O)[C@@H](O)[C@@H]2O)[C@H](O)[C@H](O)[C@H]1O [Forsythoside E]	102.62% and 100.37%	103
CC(C)=CCC[C@]1(C)C=Cc2c(O)c3c(c(CC=C(C)C)c2O1)O[C@]12C(=C[C@@H]4C[C@H]1C(C)(C)O[C@@]2(C/C=C(/C)C(=O)O)C4=O)C3=O [Gambogic Acid]	78.61% and 79.43%	78.5
O=C1O[C@H]2[C@@H]3OC(=O)c4cc(O)c(O)c(O)c4-c4c(cc(O)c(O)c4O)C(=O)OC[C@H]2O[C@@H](OC(=O)c2cc(O)c(O)c(O)c2)[C@@H]3OC(=O)c2cc(O)c(O)c3c2[C@@H]2C1=CC(=O)[C@](O)(O3)C2(O)O [Geraniin]	70.07% and 71.11%	71.6
CCCCCC/C=C\CCCCCCCCCc1cccc(O)c1C(=O)O [Ginkgolic Acid C17:1]	100.63% and 101.61%	102
Oc1cc(O)cc(/C=C/c2c(O)cccc2O)c1 [Gnetol]	81.39% and 81.62%	81.5

Compound	Inhibition%(80μM)	inhibition at 80 µM [%]
O=C(O)CCc1ccc(O)c(O)c1 [Hydrocaffeic Acid]	90.29% and 90.08%	88.3
O=c1oc2c(O)cc(O)cc2c2oc3cc(O)c(O)cc3c12 [Isodemethylwedelolacton]	99.38% and 99.79%	99.7
C[C@@H]1O[C@@H](OC[C@H]2O[C@@H](OCCc3ccc(O)c(O)c3)[C@H](O)[C@@H](OC(=O)/C=C/c3ccc(O)c(O)c3)[C@@H]2O)[C@H](O)[C@H](O)[C@H]1O [Isoforsythiaside]	100.44% and 101.30%	100
NCCCN(CCCCNCCCNC(=O)CCc1ccc(O)c(O)c1)C(=O)CCc1ccc(O)c(O)c1 [Kukoamine B]	103.22% and 104.32%	104
O=c1c(O)c(-c2cc(O)c(O)c(O)c2)oc2cc(O)cc(O)c12 [Myricetin]	90.18% and 90.28%	90.6
CCCCCCCCCCCCCC(=O)O [Myristic Acid]	82.11% and 84.30%	85
CCCCCCCC/C=C\CCCCCCCCCCCCCC(=O)O [Nervonic Acid]	89.75% and 93.14%	93.6
CCCCCCCC/C=C\CCCCCCCC(=O)O [Oleic Acid]	104.37% and 103.27%	104
C/C=C1/[C@H](O[C@@H]2O[C@H](CO)[C@@H](O)[C@H](O)[C@H]2O)OC=C(C(=O)OC)[C@H]1CC(=O)OCCc1ccc(O)c(O)c1 [Oleuropein]	97.72%	96.6
C=C1C(=O)[C@]23[C@H](O)[C@H]1CC[C@H]2[C@@]12CO[C@]3(O)[C@@H](O)[C@@H]1C(C)(C)CC[C@@H]2O [Oridonin]	83.80% and 85.60%	84.3
CC(=O)/C=C/c1ccc(O)c(O)c1 [Osmundacetone]	98.31% and 98.46%	98.7
CCCCCC/C=C\CCCCCCCC(=O)O [Palmitoleic Acid]	103.78% and 102.80%	103
CCCCCCCCCCCCCCC(=O)O [Pentadecanoic Acid]	92.58% and 91.46%	92.3
CCCCCCCCCCC/C=C\CCCCC(=O)O [Petroselinic Acid]	105.29% and 103.73%	104
O=P(O)(O)O[C@H]1[C@H](OP(=O)(O)O)[C@@H](OP(=O)(O)O)[C@H](OP(=O)(O)O)[C@@H](OP(=O)(O)O)[C@H]1OP(=O)(O)O [Phytic Acid]	97.45% and 98.02%	97.6
O=C(/C=C/c1ccc(O)c(O)c1)OC[C@H]1O[C@@H](OCCc2ccc(O)c(O)c2)[C@H](O)[C@@H](O[C@@H]2O[C@H](CO)[C@@H](O)[C@H](O)[C@H]2O)[C@@H]1O [Plantainoside D]	99.79% and 99.90%	101
CC1=CC(=O)c2c(O)cccc2C1=O [Plumbagin]	74.76% and 75.47%	70.2
CCCOC(=O)c1cc(O)c(O)c(O)c1 [Propyl Gallate]	78.61% and 79.43%	78.5
O=C(/C=C/c1ccc(O)c(O)c1)O[C@H](Cc1ccc(O)c(O)c1)C(=O)O [Rosmarinic Acid]	46.31% and 76.08% and 69.63%	–
C[n+]1cc2c3c(ccc2c2ccc4cc5c(cc4c21)OCO5)OCO3 [Sanguinarine chloride]	108.15%	108
O=c1cc(-c2ccc(O)cc2)oc2cc(O)c(O)c(O)c12 [Scutellarein]	85.01% and 83.89%	84.1
O=C(OC[C@H]1O[C@@H](OC(=O)c2cc(O)c(O)c(OC(=O)c3cc(O)c(O)c(O)c3)c2)[C@H](OC(=O)c2cc(O)c(O)c(OC(=O)c3cc(O)c(O)c(O)c3)c2)[C@@H](OC(=O)c2cc(O)c(O)c(OC(=O)c3cc(O)c(O)c(O)c3)c2)[C@@H]1OC(=O)c1cc(O)c(O)c(OC(=O)c2cc(O)c(O)c(O)c2)c1)c1cc(O)c(O)c(OC(=O)c2cc(O)c(O)c(O)c2)c1 [Tannic Acid]	88.66% and 87.66%	89.6

Reference: paper PMC10222270, “Natural Product-Based Screening for Lead Compounds Targeting SARS CoV-2 M^pro” (Pharmaceuticals, 2023)
